In series [1] the target is T1, PTP1B (human recombinant) (Homo sapiens, UniProt P18031).
T1 construct: purchased Biomol International LP (Plymouth Meeting, PA, USA)
T1 sequence (P18031 1-435): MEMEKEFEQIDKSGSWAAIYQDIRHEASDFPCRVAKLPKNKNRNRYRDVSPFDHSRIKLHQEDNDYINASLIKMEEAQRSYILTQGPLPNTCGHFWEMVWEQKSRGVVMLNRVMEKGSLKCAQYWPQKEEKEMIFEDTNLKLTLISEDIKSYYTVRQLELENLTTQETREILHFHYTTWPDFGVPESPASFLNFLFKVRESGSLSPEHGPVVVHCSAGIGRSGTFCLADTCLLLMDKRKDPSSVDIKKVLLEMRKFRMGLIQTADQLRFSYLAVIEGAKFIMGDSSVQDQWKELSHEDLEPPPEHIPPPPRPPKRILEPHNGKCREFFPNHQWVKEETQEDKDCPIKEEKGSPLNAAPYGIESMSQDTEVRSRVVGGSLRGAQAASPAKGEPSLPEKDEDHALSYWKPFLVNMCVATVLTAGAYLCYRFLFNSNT
The experiment in a line: PTP1B inhibition assay using pNPP. Type of series: biochemical. As to the method:
The PTP1B inhibitory activity was evaluated using pNPP according to the modified procedure reported by Ali et al..
(§1) To determine the inhibition mechanism, enzymatic inhibition at various concentrations of 6-FU was evaluated by monitoring the effects of different concentrations of substrates via Dixon plots. Dixon plots for PTP1B inhibition by 6-FU were obtained in the presence of 0.5, 1, and 2 mM pNPP. The test concentrations of 6-FU in the PTP1B kinetic analysis were 0, 1.25, 2.5, 5.0, and 10 µM. Dixon plots for α-glucosidase inhibition by 6-FU were performed in the presence of 0.625, 1.25, and 2.5 mM pNPG. The test concentrations of 6-FU used in the α-glucosidase kinetic analysis were 0, 31.25, 62.5, 125, and 250 µM. Both enzymatic procedures followed the PTP1B and α-glucosidase assay methods. Dixon plots for HRAR inhibition by 6-FU were performed in the presence of 5, 10, and 20 mM of DL-glyceraldehyde as the substrate. The test concentrations of 6-FU used in the HRAR kinetic analysis were 0, 0.08, 0.4, 2, and 10 µM. The Dixon plot is a graphical method [1/enzyme velocity (1/V) against inhibitor concentration (I)] for determining the type of enzyme inhibition and was used to determine the dissociation or inhibition constant (Ki) for the enzyme–inhibitor complex. Thus, the type of enzyme inhibition was determined by interpreting the Lineweaver–Burk plots, and the inhibition constants (Ki) were determined by interpreting the Dixon plots.

Another series has as its target Yeast α-glucosidase (Saccharomyces cerevisiae, UniProt P53341). Briefly: α-glucosidase inhibitory assay using pNPG. The format is biochemical. The conditions noted are these: Dixon and Lineweaver-Burk plots. The method, then:
as §1

The target of series [2] is T2, human recombinant aldose reductase (HRAR) (Homo sapiens, UniProt P15121).
T2 construct: purchased Wako Chemicals (Osaka, Japan)
The experiment in a line: HRAR inhibition assay (NADPH absorption decrease, DL-glyceraldehyde substrate). The format is biochemical. The method, then:
HRAR inhibition was examined as described by Ali et al.. Briefly, AR activity was determined by measuring the decrease in NADPH absorption at 340 nm over a period of 1 min on an Ultrospec®2100pro UV/Visible spectrophotometer (Cytiva, Buckinghamshire, UK). SWIFT II Applications software (Amersham Biosciences, NJ, USA) was used for all data analyses. […] The inhibition percentage (%) was calculated as described in the RLAR assay, except that the DA sample per min value represented the reduction in absorbance for 1 min with the test samples and substrate. The ability of each sample to inhibit HRAR was expressed as an IC50 value (µM), which was calculated from the log-dose inhibition curve.
as §1

Series [3] deals with advanced glycation end-product (AGE) formation. Briefly: Inhibition of fluorescent AGE formation in HSA-glucose-fructose system. Also on record: species or system human. Conditions: for percentage of inhibition of AGE formation: week 4 of incubation. The method, then: The formation of glycated HSA-fructose-glucose was examined according to a previously published method. To prepare the AGE reaction solution, 20 mg/mL HSA in 50 mM sodium phosphate buffer (pH 7.4) was added to 0.2M fructose, 0.2 M glucose, and 0.02% sodium azide to prevent bacterial growth. The reaction mixture (3.8 mL) was then mixed with 200 μL of various concentrations of 6-FU and aminoguanidine hydrochloride dissolved in 10% DMSO. The control was prepared using HSA and sugars, and a blank was prepared using only HSA in the same buffer. The reaction mixtures were incubated at 37 °C for 4 weeks. Aliquots of the reaction mixtures were then assayed to determine the presence of AGEs.
The ability of the isolates to inhibit AGE formation was evaluated according to a previously published method with slight modifications. To prepare the AGE reaction solution, 20 mg/mL HSA in 50mM sodium phosphate buffer (pH 7.4) was added to 0.2M fructose and 0.2 M glucose, along with 0.02% sodium azide to prevent bacterial growth. The reaction mixture (950 μL) was then combined with various concentrations of 6-FU (50 μL, test concentration ranging from 0.8 to 100 μM) dissolved in 10% DMSO. After incubating the mixture at 37 °C, AGE formation in the aliquots was determined at weekly intervals using a spectrofluorometric detector (FLx800 microplate fluorescence reader, Bio-Tek Instrument, Inc., Winooski, VT, USA) with excitation and emission wavelengths of 350 nm and 450 nm, respectively. The nucleophilic hydrazine compound aminoguanidine was used as a reference in the AGE assay.

The subject of the next series is C2C12 cells. Briefly: C2C12 cell viability (MTT assay). Conditions: 24 h, up to 40 μM (tested up to 80 μM). Type of series: cell-based. As to the method: The C2C12 cell line (skeletal muscle cells) was purchased from the American Type Culture Collection (Manassas, VA, USA). The C2C12 cells were cultured at 37 °C in DMEM supplemented with 10% FBS and P/S (Hyclone, Mordialloc, VIC, Australia) in a humidified atmosphere with 5% CO2. The tetrazolium dye colorimetric test (MTT) was used to determine cell viability. First, the C2C12 cells were cultured in 96-well plates (2 × 10^5 cells/well) for 24 h. After they reached 90% confluence, they were treated with various concentrations of 6-FU. After 24 h of incubation, the MTT reagent was added to each well, and the plate was incubated for 2 h at 37 °C. The media were removed, and the wells were washed twice with PBS (pH 7.4). To measure the proportion of surviving cells, the medium was replaced with 100 μL DMSO (100%). The resulting absorbance values were measured at 570 nm with a microplate reader (Molecular Devices, Sunnyvale, CA, USA).
A general note: Formazan colour is commonly taken as a measure of viable cells.

The subject of series [4] is insulin-resistant C2C12 skeletal muscle cells. Briefly: 2-NBDG glucose uptake assay. The format is cell-based. The method, then: The C2C12 cells were cultured in 96-well plates (2 × 10^5 cells/well) with DMEM containing 10% FBS and 1% P/S at 37 °C and exposed to a 5% CO2 atmosphere. When the cells reached confluence, they were subjected to differentiation in DMEM supplemented with 2% horse serum for 5 days. Then the cells were starved in low-glucose serum-free DMEM for 24 h. Subsequently, the 2-NBDG assay was performed to evaluate glucose uptake. The cells were treated with various concentrations of 6-FU and insulin (100 nM) for 12 h, followed by 20 μM 2-NBDG for 24 h. To stop the response, the cells were washed three times with ice-cold PBS, and then the 2-NBDG fluorescence intensity was measured on a microplate reader (FL × 800, Bio-Tek Instruments Inc., Winooski, VT, USA) at 490 nm (excitation) and 535 nm (emission). Five replicate wells were established, and each experiment was replicated three times. Rosiglitazone was used as the positive control.

Series [5] relates to PTP1B expression in insulin-resistant C2C12 cells. Briefly: PTP1B expression by Western blot. Type of series: cell-based. The conditions noted are these: 40 μM, 24 h. The method, then: Insulin-resistant C2C12 cells (2 × 10^5 cells/well) in 6-well plates were treated with different concentrations of 6-FU for 24 h. After stimulation with 100 nM insulin for 30 min at 37 °C, the cells were washed three times with ice-cold PBS, collected, and lysed with sample buffer (50 mM HEPES, pH 7.5, 150 mM NaCl, 2.5 mM EDTA, 0.5% NP40, 1 mM PMSF, 1 mM DTT, 0.2% aprotinin, 0.5% leupeptin, 20 mM NaF, and 1 mM Na3VO4) on ice. After incubation for 30 min, the insoluble materials were removed by centrifugation at 25,000× g for 20 min. The protein concentrations were determined using a modified Bradford protein assay kit. Total protein (50 μg) was subjected to dodecyl sulfate–polyacrylamide gel electrophoresis and transferred to a polyvinylidene difluoride membrane. The membranes were blocked in blocking buffer (5% skim milk in Tris-buffered saline containing 0.1% Tween 20 (TBST)) and incubated with primary antibodies overnight at 4 °C, followed by incubation with appropriate secondary antibodies for 4 h at room temperature. The membranes were washed three times with TBST for 40 min. The bands were detected using Super Signal West Pico chemiluminescence substrate (Pierce, Rockford, IL, USA) according to the manufacturer’s instructions. The immunoreactive protein bands were detected using an Odyssey scanning system (LI-COR, Lincoln, NE, USA). […]
Background: A western blot detects proteins with antibodies after separation by electrophoresis.

Where [6] appears, read: Dixon and Lineweaver-Burk plots.

What is called IC50 is the midpoint of a concentration-inhibition curve. The Ki is a measure of affinity in units of concentration, obtained from inhibition or displacement.

Yeast α-glucosidase, sequence (P53341 whole entry): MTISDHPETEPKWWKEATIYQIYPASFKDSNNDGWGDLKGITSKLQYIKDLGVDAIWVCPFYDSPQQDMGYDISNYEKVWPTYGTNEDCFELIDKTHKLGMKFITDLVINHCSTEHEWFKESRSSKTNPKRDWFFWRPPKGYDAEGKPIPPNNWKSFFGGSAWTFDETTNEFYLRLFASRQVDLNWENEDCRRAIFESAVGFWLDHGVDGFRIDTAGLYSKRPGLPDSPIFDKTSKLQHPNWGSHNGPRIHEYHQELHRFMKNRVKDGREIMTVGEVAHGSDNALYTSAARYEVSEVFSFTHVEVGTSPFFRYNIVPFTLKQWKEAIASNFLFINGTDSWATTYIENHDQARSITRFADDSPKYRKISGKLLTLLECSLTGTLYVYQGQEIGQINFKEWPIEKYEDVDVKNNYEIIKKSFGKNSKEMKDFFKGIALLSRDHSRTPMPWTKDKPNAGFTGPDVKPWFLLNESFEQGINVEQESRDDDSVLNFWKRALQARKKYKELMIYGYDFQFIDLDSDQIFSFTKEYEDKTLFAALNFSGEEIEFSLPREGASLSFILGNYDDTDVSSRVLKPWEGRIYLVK

For the molecule `O=Cc1cc2ccc(=O)oc2cc1O` [6-FU, 6-formyl umbelliferone], the IC50 worked out at 1130 ± 120 nM in series [1]; 5110 ± 210 nM in series [2]; 2150 ± 130 nM in series [3] (AGE formation, mean ± SEM of triplicates). The Ki in series [1] came to 1720 nM; in series [2], 4.87 µM. Further, the “Inhibition type PTP1B” value in series [1] (setting [6]) was “Competitive”. On Yeast α-glucosidase, the “Inhibition type α-Glucosidase” value is “Mixed”. For the same molecule, the “Inhibition type HRAR” value in series [2] (setting [6]) is given as “Mixed”. In addition, the “percentage of inhibition of AGE formation” value was found to be 24.04% in series [3] (0.8 μM), 55.73% in series [3] (4.0 μM), 64.18% in series [3] (20 μM) and 82.60% in series [3] (100 μM). The “cytotoxicity (cell viability, MTT)” value in the series with C2C12 cells was “not cytotoxic”. Further, the “insulin-stimulated 2-NBDG uptake” value in series [4] (10, 20, and 40 μM, compared with the control) is recorded as “significantly enhanced”. Also, in series [5], the PTP1B expression level entry is given as “decreased”.
In the case of `N=C(N)NN` [Aminoguanidine, aminoguanidine, reference compound], in series [3] (100 μM), the “percentage of inhibition of AGE formation” value was determined as 57.23%.
On to `O=C(O)Cn1c(=O)n(Cc2ccc(Br)cc2F)c(=O)c2ccc(Cl)cc21` [Zenarestat, zenarestat, reference compound], for which the IC50 in series [2] turned out to be 630 ± 10 nM.
Consider `CN(CCOc1ccc(CC2SC(=O)NC2=O)cc1)c1ccccn1` (stereo not drawn) [rosiglitazone, reference compound], for which the insulin-stimulated glucose uptake result in series [4] (5 μM) was “significantly increased”.

Source of the values: paper PMC9458250, “6-Formyl Umbelliferone, a Furanocoumarin from Angelica decursiva L., Inhibits Key Diabetes-Related Enzymes and Advanced Glycation End-Product Formation” (Molecules, 2022).
